From patent US9878982B2, “Pyridine derivatives and anti-mycobacterial use thereof” (priority 2014, dated 2018)
Values after ≈ are worked out from the molar mass of the structure shown. Read-outs that look alike come from different tables or passages of the source.

Key:
[1] = tested on: Mycobacterium smegmatis strain ATCC19420; assay: In vitro efficacy test using Mycobacterium smegmatis strain ATCC19420 (MIC); type: cell-based; settings: CA-MHB + 0.02% Tween 80, 30° C., read after 72 hours; for MIC: Mycolicibacterium smegmatis, ATCC19420, 72 h
M. tuberculosis H37Rv = assay: In vitro efficacy test using the H37Rv strain, Microplate Alamar Blue Assay (MABA) MIC; type: cell-based, Mycobacterium tuberculosis; settings: for MIC: Mycobacterium tuberculosis, H37RV
M. tuberculosis H37R = assay: microbe, parasite or virus in culture; type: cell-based, Mycobacterium tuberculosis; settings: for MIC: Mycobacterium tuberculosis, H37R, read-out: M. tuberculosis H37R LORA (MIC)
Vero Cell = assay: Vero cell cytotoxicity (IC50); type: cell-based; settings: Chlorocebus sabaeus, Vero, African green monkey kidney cells
Hela = Hela cell cytotoxicity (CC50); settings: human cervical cancer cells; half of the toxic concentration
[2] = Hela cell cytotoxicity (CC50); settings: human, HeLa cells (human cervical cancer cells), CC50_Hela, half of the toxic concentration
[3] = aerobic, 7H9 medium, Alamar Blue, read-out: M. tuberculosis H37Rv MABA (MIC)

SMILES | M. smegmatis ATCC19420 MIC [1] | MIC (M. tuberculosis H37Rv; [3]) | MIC (M. tuberculosis H37R) | IC50 (Vero Cell) | CC50_Hela (Hela) | MIC [1] | CC50 [2] | M. tuberculosis H37Rv MABA (MIC) (M. tuberculosis H37Rv; aerobic, 7H9 medium, Alamar Blue) | M. tuberculosis H37R LORA (MIC) (M. tuberculosis H37R) | inhibitory activity against M. tuberculosis H37Rv, aerobic (MABA) (in words) (M. tuberculosis H37Rv) | MIC (M. tuberculosis H37Rv; wild-type H37Rv strain, two values per compound, read-out: MABA MIC vs. H37Rv)
COc1ncc(C2CCCCC2)cc1C(c1ccccc1)C(O)(CCN(C)C)c1cccc2ccccc12 (stereo not shown) [Compound 103, 1-(5-cyclohexyl-2-methoxypyridin-3-yl)-4-(dimethylamino)-2-(naphthalen-1-yl)-1-phenylbutan-2-ol] | 0.125 µg/mL | 0.76 µg/mL | 1.48 µg/mL (≈ 2.91 µM) | 32.3 µg/mL (≈ 63.5 µM) | 57.72 µg/mL (≈ 113 µM) |  |  |  |  |  | 
COc1cccc(C(c2cc(-c3ccccc3)cnc2OC)C(O)(CCN(C)C)c2cccc(Cl)c2)c1OC (stereo not shown) [Compound 209, 2-(3-chlorophenyl)-1-(2,3-dimethoxyphenyl)-4-(dimethylamino)-1-(2-methoxy-5-phenylpyridin-3-yl)butan-2-ol] |  | 0.89 µg/mL | 0.84 µg/mL (≈ 1.54 µM) | 27.3 µg/mL (≈ 49.9 µM) |  | 0.0312 µg/mL | 13.3 µg/mL (≈ 24.3 µM) |  |  |  | 
COc1ncc(C(C)(C)C)cc1C(c1ccccc1)C(O)(CCN(C)C)c1cccc2ccccc12 (stereo not shown) [Compound 177, 1-(5-tert-butyl-2-methoxypyridin-3-yl)-4-dimethylamino-2-(naphthalen-1-yl)-1-phenylbutan-2-ol] |  | 1.74 µg/mL | 1.81 µg/mL (≈ 3.75 µM) | 27.6 µg/mL (≈ 57.2 µM) |  | 0.125 µg/mL | > 64 µg/mL |  |  |  | 
COc1ncc(C2CCCC2)cc1C(c1ccccc1)C(O)(CCN(C)C)c1cccc2ccccc12 (stereo not shown) [Compound 63] | <0.0625 µg/mL |  |  | > 50 µg/mL |  |  | 52.9 µg/mL (≈ 107 µM) | 0.75 µg/mL | 1.41 µg/mL |  | 
COc1ncc(-c2cccc(C#N)c2)cc1C(c1ccccc1)C(O)(CCN(C)C)c1cccc2ccccc12 (stereo not shown) [Compound 153, 3-(5-(4-(dimethylamino)-2-hydroxyl-2-(naphthalen-1-yl)-1-phenylbutyl)-6-methoxypyridin-3-yl)-benzonitrile] |  | 0.96 µg/mL | 2.54 µg/mL (≈ 4.81 µM) | > 32 µg/mL |  | 0.25 µg/mL | > 64 µg/mL |  |  |  | 
CCOc1ncc(-c2ccccc2)cc1C(c1ccccc1)C(O)(CCN(C)C)c1cccc2ccccc12 (stereo not shown) [Compound 217, 4-(dimethylamino)-1-(2-ethoxy-5-phenylpyridin-3-yl)-2-(naphthalen-1-yl)-1-phenylbutan-2-ol] |  | 0.41 µg/mL | 1.66 µg/mL (≈ 3.21 µM) | > 32 µg/mL |  | ≤ 0.0625 µg/mL | > 64 µg/mL |  |  |  | 
COc1ncc(-c2ccc(Cl)cc2)cc1C(c1ccccc1)C(O)(CCN(C)C)c1cccc(Br)c1 (single isomer, unassigned) [Compound 388, 2-(3-bromophenyl)-1-(5-(4-chlorophenyl)-2-methoxypyridin-3-yl)-4-(dimethylamino)-1-phenylbutan-2-ol] |  | 0.062 µg/mL | < 0.125 µg/mL | > 32 µg/mL |  | 0.0156 µg/mL | 26.2 µg/mL (≈ 46.2 µM) |  |  |  | 
COc1ncc(-c2ccccc2Cl)cc1C(c1ccccc1)C(O)(CCN(C)C)c1cccc2ccccc12 (stereo not shown) [Compound 107] |  | 1.17 µg/mL | 3.03 µg/mL (≈ 5.64 µM) | > 50 µg/mL |  | 0.5 µg/mL | > 64 µg/mL |  |  |  | 
COc1ccc(-c2cnc(OC)c(C(c3ccccc3)C(O)(CCN(C)C)c3cccc4ccccc34)c2)cc1 (stereo not shown) [Compound 299, 4-(dimethylamino)-1-(2-methoxy-5-(4-methoxyphenyl)pyridin-3-yl)-2-(naphthalen-1-yl)-1-phenylbutan-2-ol] |  | 0.33 µg/mL | 0.19 µg/mL (≈ 0.357 µM) | > 32 µg/mL |  | 0.125 µg/mL | > 64 µg/mL |  |  |  | 
COc1ncc(-c2ccsn2)cc1C(c1ccccc1)C(O)(CCN(C)C)c1cccc2ccccc12 (stereo not shown) [Compound 145, 4-(dimethylamino)-1-(5-(isothiazol-3-yl)-2-methoxypyridin-3-yl)-2-(naphthalen-1-yl)-1-phenylbutan-2-ol] |  | 0.97 µg/mL | 1.57 µg/mL (≈ 3.08 µM) | 25.1 µg/mL (≈ 49.2 µM) |  | 0.0625 µg/mL | 12.7 µg/mL (≈ 24.8 µM) |  |  |  | 
COc1ncc(-c2ccc(Br)cc2)cc1C(c1ccccc1)C(O)(CCN(C)C)c1cc(F)cc(F)c1 (stereo not shown) [Compound 316, 1-(5-(4-bromophenyl)-2-methoxypyridin-3-yl)-2-(3,5-difluorophenyl)-4-dimethylamino-1-phenylbutan-2-ol] |  | 0.04 µg/mL | 2.97 µg/mL (≈ 5.23 µM) | > 32 µg/mL |  | 0.0156 µg/mL | > 64 µg/mL |  |  |  | 
COc1ncc(-c2ccsc2)cc1C(c1ccccc1)C(O)(CCN(C)C)c1cccc2ccccc12 (stereo not shown) [Compound 136, 4-(dimethylamino)-1-(2-methoxy-5-(thiophen-3-yl)pyridin-3-yl)-2-(naphthalen-1-yl)-1-phenylbutan-2-ol] |  | 0.35 µg/mL | 0.79 µg/mL (≈ 1.55 µM) | > 50 µg/mL |  | 0.0312 µg/mL | > 64 µg/mL |  |  |  | 
COc1ncc(-c2ccccc2)cc1C(c1ccccc1)C(O)(CCN(C)C)c1cc(F)cc(F)c1 (stereo not shown) [Compound 35, 2-(3,5-difluorophenyl)-4-(dimethylamino)-1-(2-methoxy-5-phenylpyridin-3-yl)-1-phenylbutan-2-ol] |  | 0.73 µg/mL | 0.37 µg/mL (≈ 0.757 µM) | > 50 µg/mL |  | ≤ 0.0625 µg/mL | 28.9 µg/mL (≈ 59 µM) |  |  |  | 
COc1ncc(-c2ccc(Cl)cc2)cc1C(c1ccccc1)C(O)(CCN(C)C)c1cccc(F)c1 (stereo not shown) [Compound 297] |  | 0.1 µg/mL | 0.74 µg/mL (≈ 1.47 µM) | > 32 µg/mL |  | 0.0312 µg/mL | 39.1 µg/mL (≈ 77.5 µM) |  |  |  | 
COc1ncc(-c2ccc(Br)c(F)c2)cc1C(c1ccccc1)C(O)(CCN(C)C)c1cccc2ccccc12 (stereo not shown) [Compound 331, 1-(5-(4-bromo-3-fluorophenyl)-2-methoxypyridin-3-yl)-4-(dimethylamino)-2-(naphthalen-1-yl)-1-phenylbutan-2-ol] |  | 0.04 µg/mL | 4.07 µg/mL (≈ 6.79 µM) | > 32 µg/mL |  | 0.0625 µg/mL | > 64 µg/mL |  |  |  | 
CC#Cc1cnc(OC)c(C(c2ccccc2)C(O)(CCN(C)C)c2cccc3ccccc23)c1 (stereo not shown) [Compound 263, 4-(dimethylamino)-1-(2-methoxy-5-prop-1-ynyl-3-pyridyl)-2-(1-naphthyl)-1-phenylbutan-2-ol] |  | 1.38 µg/mL | 2.08 µg/mL (≈ 4.48 µM) | > 32 µg/mL |  | 0.5 µg/mL | > 64 µg/mL |  |  |  | 
COc1ncc(-c2ccccc2)cc1C(c1ccc(F)cc1)C(O)(CCN(C)C)c1ccccc1 (stereo not shown) [Compound 70, 4-(dimethylamino)-1-(4-fluorophenyl)-1-(2-methoxy-5-phenylpyridin-3-yl)-2-phenylbutan-2-ol] |  | 1.49 µg/mL | 1.33 µg/mL (≈ 2.83 µM) | > 50 µg/mL |  | 0.125 µg/mL | 13.7 µg/mL (≈ 29.1 µM) |  |  |  | 
COc1cccc(C(c2cc(-c3ccccc3)cnc2OC)C(O)(CCN(C)C)c2ccccc2)c1F (stereo not shown) [Compound 226, 4-(dimethylamino)-1-(2-fluoro-3-methoxyphenyl)-1-(2-methoxy-5-phenylpyridin-3-yl)-2-phenylbutan-2-ol] |  | 0.44 µg/mL | 0.97 µg/mL (≈ 1.94 µM) | 25.5 µg/mL (≈ 50.9 µM) |  | 0.125 µg/mL | 13.1 µg/mL (≈ 26.2 µM) |  |  |  | 
COc1ncc(-c2ccc(F)c(F)c2)cc1C(c1ccccc1)C(O)(CCN(C)C)c1cccc2ccccc12 (stereo not shown) [Compound 347] |  | 0.23 µg/mL | 0.51 µg/mL (≈ 0.947 µM) | > 32 µg/mL |  | 0.0625 µg/mL | > 64 µg/mL |  |  |  | 
COc1ncc(C2CCSCC2)cc1C(c1ccccc1)C(O)(CCN(C)C)c1cccc2ccccc12 (stereo not shown) [Compound 255, 4-(dimethylamino)-1-(2-methoxy-5-(tetrahydro-2H-thiopyran-4-yl)pyridin-3-yl)-2-(naphthalen-1-yl)-1-phenylbutan-2-ol] |  | 0.48 µg/mL | 8.33 µg/mL (≈ 15.8 µM) | > 32 µg/mL |  | 0.25 µg/mL | > 64 µg/mL |  |  |  | 
COc1cccc(C(c2cc(-c3ccc(Cl)cc3)cnc2OC)C(O)(CCN(C)C)c2cc(Cl)cc(Cl)c2)c1OC (single isomer, unassigned) [Compound 395, 1-(5-(4-chlorophenyl)-2-methoxypyridin-3-yl)-2-(3,5-dichlorophenyl)-1-(2,3-dimethoxyphenyl)-4-(dimethylamino)butan-2-ol] |  | 0.031 µg/mL | < 0.125 µg/mL | > 32 µg/mL |  | 0.039 µg/mL | > 64 µg/mL |  |  |  | 
COc1ncc(-c2ccc(C#N)cc2)cc1C(c1ccccc1)C(O)(CCN(C)C)c1cccc2ccccc12 (stereo not shown) [Compound 157, 4-(5-(4-(dimethylamino)-2-hydroxyl-2-(naphthalen-1-yl)-1-phenylbutyl)-6-methoxypyridin-3-yl)-benzonitrile] |  | 0.44 µg/mL | 0.77 µg/mL (≈ 1.46 µM) | > 32 µg/mL |  | 0.0312 µg/mL | > 64 µg/mL |  |  |  | 
COc1ncc(-c2ccccc2Br)cc1C(c1ccccc1)C(O)(CCN(C)C)c1cccc2ccccc12 (stereo not shown) [Compound 125, 1-(5-(2-bromophenyl)-2-methoxypyridin-3-yl)-4-(dimethylamino)-2-(naphthalen-1-yl)-1-phenylbutan-2-ol] |  | 1.84 µg/mL | 1.89 µg/mL (≈ 3.25 µM) | > 32 µg/mL |  | 0.5 µg/mL | > 64 µg/mL |  |  |  | 
COc1ncc(-c2ccc(Cl)cc2)cc1C(c1ccccc1)C(O)(CCN(C)C)c1cccc2ccccc12 (stereo not shown) [Compound 115, 1-(5-(4-chlorophenyl)-2-methoxypyridin-3-yl)-4-(dimethylamino)-2-(naphthalen-1-yl)-1-phenylbutan-2-ol] |  | 0.08 µg/mL | 0.56 µg/mL (≈ 1.04 µM) | > 50 µg/mL |  | 0.0156 µg/mL | > 64 µg/mL |  |  | comparable to that of the marketed anti-TB drug, Bedaquiline | 0.06 µM
COc1ncc(-c2cscn2)cc1C(c1ccccc1)C(O)(CCN(C)C)c1cccc2ccccc12 (stereo not shown) [Compound 161, 4-(dimethylamino)-1-(2-methoxy-5-(thiazol-4-yl)pyridin-3-yl)-2-(naphthalen-1-yl)-1-phenylbutan-2-ol] |  | 1.6 µg/mL | 4.24 µg/mL (≈ 8.32 µM) | 25.1 µg/mL (≈ 49.1 µM) |  | 0.125 µg/mL | 14.4 µg/mL (≈ 28.3 µM) |  |  |  | 
